Measurements published in patent US10294202B2, “Pyrrolidinones as herbicides” (FMC Corporation, priority 2013, dated 2019).

How the values were obtained:
ducksalad = test: Test B flooded paddy test; type: in vivo, Heteranthera limosa; conditions: 1000 g ai/ha, Flood; scale of 0 to 100 where 0 is no effect and 100 is complete control
Summary of the method: (§1)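 Paddy-water application at a 3 cm flood, young plants having two leaves. Water level maintained; greenhouse, 13–15 days; visual 0–100 control rating.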

morningglory = test: Test C pre-/postemergence herbicide test; type: in vivo, Ipomoea coccinea
Summary of the method: (§2)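 Two application timings ran in parallel with identically formulated test chemicals (non-phytotoxic solvent, surfactant included): spray on seeded loam–sand soil, and spray on emerged plants 2 to 18 cm high. Evaluation at 13 to 15 days compared each species with controls, rated from 0 up to 100.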

johnsongrass = test: Test C pre-/postemergence herbicide test; type: in vivo, Sorghum halepense
Summary of the method: as §2

corn [1] = test: Test A pre-/postemergence herbicide test; type: in vivo, Zea mays
Summary of the method: (§3)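 Directed soil spray to seeded pots (preemergence) or spray onto one- to two-leaf seedlings 2–10 cm tall (postemergence); loam/sand substrate throughout. Evaluated visually after about 10 days against untreated plants, 0 = no effect, 100 = complete control.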

ragweed = test: Test C pre-/postemergence herbicide test; type: in vivo, Ambrosia elatior
Summary of the method: as §2

nutsedge, yellow = test: Test C pre-/postemergence herbicide test; type: in vivo, Cyperus esculentus
Summary of the method: as §2

ryegrass, Italian = test: Test C pre-/postemergence herbicide test; type: in vivo, Lolium multiflorum
Summary of the method: as §2

rice = test: Test B flooded paddy test; type: in vivo, Oryza sativa; conditions: 1000 g ai/ha, Flood; scale of 0 to 100 where 0 is no effect and 100 is complete control
Summary of the method: as §1

lambsquarters = test: Test C pre-/postemergence herbicide test; type: in vivo, Chenopodium album
Summary of the method: as §2

wheat = test: Test A pre-/postemergence herbicide test; type: in vivo, Triticum aestivum
Summary of the method: as §3

pigweed = test: Test A pre-/postemergence herbicide test; type: in vivo, Amaranthus retroflexus
Summary of the method: as §3

corn [2] = test: Test C pre-/postemergence herbicide test; type: in vivo, Zea mays
Summary of the method: as §2

[3] = Postemergence, 31 g ai/ha, scale 0 (no effect) to 100 (complete control)
[4] = Postemergence, 62 g ai/ha, scale 0 to 100 (0 no effect, 100 complete control)
[5] = Postemergence, 125 g ai/ha, scale 0 to 100 (0 no effect, 100 complete control)
[6] = Postemergence, 250 g ai/ha, scale 0 to 100 (0 no effect, 100 complete control)
[7] = Postemergence, 1000 g ai/ha, 0 to 100 scale (0 no effect, 100 complete control)
[8] = preemergence, 1000 g ai/ha, 0 to 100 scale
[9] = Preemergence, 31 g ai/ha, scale 0 to 100, 0 is no effect and 100 is complete control
[10] = Preemergence, 62 g ai/ha, scale 0 to 100
[11] = Preemergence, 125 g ai/ha, scale 0 to 100 (0 no effect, 100 complete control)
[12] = Postemergence, 125 g ai/ha, 0 to 100 scale, 0 no effect, 100 complete control
[13] = Postemergence, 500 g ai/ha, 0 to 100 scale (0 no effect, 100 complete control)

## Cc1c(F)cccc1NC(=O)C1C(=O)NCC1c1ccc(F)c(F)c1 (racemic) [Compound 106]
ducksalad
  Plant response rating, Ducksalad: 90
morningglory; [3]
  Plant response rating, Morningglory: 0
morningglory; [4]
  Plant response rating, Morningglory: 5
morningglory; [5]
  Plant response rating, Morningglory: 10
morningglory; [6]
  Plant response rating, Morningglory: 5
johnsongrass; [3]
  Plant response rating, Johnsongrass: 0
johnsongrass; [4]
  Plant response rating, Johnsongrass: 0
johnsongrass; [5]
  Plant response rating, Johnsongrass: 0
johnsongrass; [6]
  Plant response rating, Johnsongrass: 0
Corn [1]; [7]
  Plant response rating, Corn: 50
Corn [1]; [8]
  Plant response rating, Corn: 30
ragweed; [3]
  Plant response rating, Ragweed: 25
ragweed; [4]
  Plant response rating, Ragweed: 0
ragweed; [5]
  Plant response rating, Ragweed: 0
ragweed; [6]
  Plant response rating, Ragweed: 5
nutsedge, yellow; [3]
  Plant response rating, Nutsedge, Yellow: 0
nutsedge, yellow; [4]
  Plant response rating, Nutsedge, Yellow: 0
nutsedge, yellow; [5]
  Plant response rating, Nutsedge, Yellow: 0
nutsedge, yellow; [6]
  Plant response rating, Nutsedge, Yellow: 0
ryegrass, Italian; [3]
  Plant response rating, Ryegrass, Italian: 0
ryegrass, Italian; [4]
  Plant response rating, Ryegrass, Italian: 0
ryegrass, Italian; [5]
  Plant response rating, Ryegrass, Italian: 0
ryegrass, Italian; [6]
  Plant response rating, Ryegrass, Italian: 5
rice
  Plant response rating, Rice: 15
lambsquarters; [3]
  Plant response rating, Lambsquarters: 0
lambsquarters; [4]
  Plant response rating, Lambsquarters: 25
lambsquarters; [5]
  Plant response rating, Lambsquarters: 0
lambsquarters; [6]
  Plant response rating, Lambsquarters: 0
wheat; [7]
  Plant response rating, Wheat: 30
wheat; [8]
  Plant response rating, Wheat: 50
pigweed; [7]
  Plant response rating, Pigweed: 0
pigweed; [8]
  Plant response rating, Pigweed: 0
Corn [2]; [3]
  Plant response rating, Corn: 0
Corn [2]; [4]
  Plant response rating, Corn: 0
Corn [2]; [5]
  Plant response rating, Corn: 0
Corn [2]; [6]
  Plant response rating, Corn: 0

## Cc1ccccc1NC(=O)C1C(=O)NCC1c1cccc(C(F)(F)F)c1 (racemic) [Compound 109]
ducksalad
  Plant response rating, Ducksalad: 95
morningglory; [3]
  Plant response rating, Morningglory: 20
morningglory; [4]
  Plant response rating, Morningglory: 0
morningglory; [5]
  Plant response rating, Morningglory: 5
morningglory; [6]
  Plant response rating, Morningglory: 15
morningglory; [9]
  Morningglory plant response rating: 0
morningglory; [10]
  Plant response rating, Morningglory: 0
morningglory; [11]
  Plant response rating, Morningglory: 5
morningglory; Preemergence, 250 g ai/ha
  Plant response rating (scale of 0 to 100), Morningglory: 30
johnsongrass; [3]
  Plant response rating, Johnsongrass: 0
johnsongrass; [4]
  Plant response rating, Johnsongrass: 0
johnsongrass; [5]
  Plant response rating, Johnsongrass: 0
johnsongrass; [6]
  Plant response rating, Johnsongrass: 0
johnsongrass; [9]
  Johnsongrass plant response rating: 0
johnsongrass; [10]
  Plant response rating, Johnsongrass: 10
johnsongrass; [11]
  Plant response rating, Johnsongrass: 40
johnsongrass; Preemergence, 250 g ai/ha
  Plant response rating (scale of 0 to 100), Johnsongrass: 70
Corn [1]; [12]
  Plant response rating, Corn: 50
Corn [1]; [13]
  Plant response rating, Corn: 80
ragweed; [3]
  Plant response rating, Ragweed: 0
ragweed; [4]
  Plant response rating, Ragweed: 0
ragweed; [5]
  Plant response rating, Ragweed: 0
ragweed; [6]
  Plant response rating, Ragweed: 5
ragweed; [9]
  Ragweed plant response rating: 0
ragweed; [10]
  Plant response rating, Ragweed: 0
ragweed; [11]
  Plant response rating, Ragweed: 0
ragweed; Preemergence, 250 g ai/ha
  Plant response rating (scale of 0 to 100), Ragweed: 10
nutsedge, yellow; [3]
  Plant response rating, Nutsedge, Yellow: 0
nutsedge, yellow; [4]
  Plant response rating, Nutsedge, Yellow: 0
nutsedge, yellow; [5]
  Plant response rating, Nutsedge, Yellow: 0
nutsedge, yellow; [6]
  Plant response rating, Nutsedge, Yellow: 0
nutsedge, yellow; [9]
  Nutsedge, Yellow plant response rating: 0
nutsedge, yellow; [10]
  Plant response rating, Nutsedge, Yellow: 5
nutsedge, yellow; [11]
  Plant response rating, Nutsedge, Yellow: 0
nutsedge, yellow; Preemergence, 250 g ai/ha
  Plant response rating (scale of 0 to 100), Nutsedge, Yellow: 5
ryegrass, Italian; [3]
  Plant response rating, Ryegrass, Italian: 0
ryegrass, Italian; [4]
  Plant response rating, Ryegrass, Italian: 0
ryegrass, Italian; [5]
  Plant response rating, Ryegrass, Italian: 0
ryegrass, Italian; [6]
  Plant response rating, Ryegrass, Italian: 0
ryegrass, Italian; [9]
  Ryegrass, Italian plant response rating: 0
ryegrass, Italian; [10]
  Plant response rating, Ryegrass, Italian: 40
ryegrass, Italian; [11]
  Plant response rating, Ryegrass, Italian: 20
ryegrass, Italian; Preemergence, 250 g ai/ha
  Plant response rating (scale of 0 to 100), Ryegrass, Italian: 70
rice
  Plant response rating, Rice: 0
lambsquarters; [3]
  Plant response rating, Lambsquarters: 0
lambsquarters; [4]
  Plant response rating, Lambsquarters: 0
lambsquarters; [5]
  Plant response rating, Lambsquarters: 0
lambsquarters; [6]
  Plant response rating, Lambsquarters: 5
lambsquarters; [9]
  Lambsquarters plant response rating: 0
lambsquarters; [10]
  Plant response rating, Lambsquarters: 0
lambsquarters; [11]
  Plant response rating, Lambsquarters: 5
lambsquarters; Preemergence, 250 g ai/ha
  Plant response rating (scale of 0 to 100), Lambsquarters: 0
wheat; [12]
  Plant response rating, Wheat: 20
wheat; [13]
  Plant response rating, Wheat: 60
pigweed; [12]
  Plant response rating, Pigweed: 0
pigweed; [13]
  Plant response rating, Pigweed: 0
pigweed; Preemergence, 125 g ai/ha, visual rating on 0 to 100 scale (0 no effect, 100 complete control)
  Pigweed plant response rating: 0
pigweed; preemergence, 500 g ai/ha, 0 to 100 scale
  Plant response rating, Pigweed: 0
Corn [2]; [3]
  Plant response rating, Corn: 0
Corn [2]; [4]
  Plant response rating, Corn: 0
Corn [2]; [5]
  Plant response rating, Corn: 0
Corn [2]; [6]
  Plant response rating, Corn: 5
Corn [2]; [9]
  Corn plant response rating: 0
Corn [2]; [10]
  Plant response rating, Corn: 5
Corn [2]; [11]
  Plant response rating, Corn: 60
Corn [2]; Preemergence, 250 g ai/ha
  Plant response rating (scale of 0 to 100), Corn: 75
